Experiment in all cases: DTP human tumour cell line panel, 48 h
In assay [1] the test system is SR leukemia.
Assay [2] relates to SW-620 colon.
Assay [3] has as its system CAKI-1 renal.
In assay [4] the test system is MDA-MB-435.
Assay [5] relates to EKVX NSCLC.
Assay [6] concerns MCF7 breast.
Assay [7] has as its system NCI-H226 lung.
Assay [8] concerns OVCAR-5 ovarian.
The subject of assay [9] is RPMI-8226 leukemia.
Assay [10] concerns T-47D breast.

Values joined by “and” are separate entries in the source; they are usually repeats but may differ in a detail not shown here. Identical values can stand only once.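 Method: 48-hour compound exposure of cells in 96-well plates, five concentrations, linear interpolation of endpoints. The concentration for 50% growth inhibition is given as GI50. At the TGI there is no net growth.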 A value given as a limit tells only on which side of the number the result lay.

Broadly, the TGI is the concentration giving total growth inhibition. Low readings indicate greater sensitivity of the cells, high ones lower sensitivity of the cells. One may read the GI50 as the concentration at which growth is held to half of that of the control.

On to `COc1cc(C(=O)c2cnc(-c3c[nH]c4cccc(C)c34)[nH]2)cc(OC)c1OC`, for which the TGI was above 100 µM in assay [1]; above 100 µM in [2]; above 100 µM in assay [3]; 0.0051 µM in [4]; above 100 µM in assay [6]; above 100 µM in assay [8]. In assay [9], this compound showed a total growth inhibition concentration (TGI) of 19.8 µM. Besides, the GI50 was 0.00416 µM in [2]; 0.00222 µM in assay [4]; 0.00804 µM in assay [5]; 0.00344 µM in [6]; 0.00485 µM in assay [7]; 0.0746 µM in [8]. For the same compound, in assay [9], the GI50 was 0.0399 µM.

Consider `COc1ccc(/C=C/C(=O)c2c(-c3ccccc3)nn(C)c(=O)c2N2CC2C)cc1` (stereo not given), for which the TGI in assay [2] was 88.2 µM; in [3], above 100 µM; in [5], 94.3 µM; in assay [7], above 100 µM; in assay [8] it was above 100 µM.

As for `O=P(CN1CCOCC1)(c1ccccc1)c1ccccc1`, the TGI in [2], in assay [3], in assay [5], in assay [8] and in assay [9] was above 100 µM throughout.

On to `O=C1C(Cl)=C(Nc2ccc(S(=O)(=O)c3ccc(NC4=C(Cl)C(=O)c5ccccc5C4=O)cc3)cc2)C(=O)c2ccccc21`, for which the GI50 in assay [1] was 1.27 µM; in [3] it was 1.38 µM; in assay [5], 2.36 µM; in assay [7], 3.1 µM; in assay [8], 1.92 µM; in assay [9] it was 1.54 µM. Besides, the total growth inhibition concentration (TGI) in assay [1] is 7.19 µM; in assay [3], 2.74 µM; in [5], 9.07 µM; in assay [7], 18.6 µM; in assay [8], 3.81 µM; in assay [9], 7.25 µM.

For `O=C(/C=C/c1ccccc1)c1ccc(Cl)cc1Cl`, the concentration for total growth inhibition (TGI) in assay [2] came out at 17.9 µM; in assay [3], 64 µM; in assay [5], 62.3 µM; in assay [7], 89.9 µM; in [8] it was 39.5 µM; in assay [9], 28.4 µM.

Regarding `[O]=[Sn]([CH]1CCCCC1)[CH]1CCCCC1`, the 50% growth inhibitory concentration (GI50) was 0.312 µM in assay [1]; 0.0934 µM in [2]; 0.145 µM in assay [3]; 0.218 µM in assay [4]; 0.225 µM in assay [5]; 0.0849 µM in [6]. For the same compound, the GI50 in assay [7] was 0.229 µM; in assay [8] it was 0.62 µM; in assay [9], 0.188 µM. Further, the TGI in assay [1] worked out at 1.71 µM; in assay [2] it was 0.238 µM; in assay [3], 0.341 µM; in [4], 0.833 µM; in assay [5], 1.2 µM; in [7], 0.657 µM. For the same compound, the TGI stood at 1.71 µM in assay [8] and 0.718 µM in assay [9].

As for `C/C=C/C=C/c1cc2cc3c(c(O)c2c(=O)[nH]1)C1(CC3)C(O)=c2c(=O)c3c(=O)cc(OC)c(=O)c=3c(=O)c2=C1O` (stereo not given), the TGI was 1.47 µM and 13 µM in [2]; 10.8 µM in assay [4]; 3 µM and 12.2 µM in assay [5]; 0.215 µM in assay [6]; 3.71 µM and 8.42 µM in assay [7]; 0.678 µM and 2.2 µM in [9]. Further, the GI50 in [5] is 0.188 µM and 1.12 µM; in assay [7], 0.23 µM and 0.895 µM.

Take `FC(F)(F)c1ccccc1C1SCc2nc3ccccc3n21` (stereo not given): the TGI in assay [1], in assay [2], in assay [3], in assay [5], in assay [7] and in assay [8] was above 100 µM throughout. This compound had a TGI in assay [9] above 100 µM.

For `Cc1cc(Cl)ccc1N=C1NC(=O)C(CC(=O)Nc2cccc(Cl)c2)S1` (stereo not given), the TGI in assay [2] was above 100 µM; in [3] it was above 100 µM; in assay [5], above 100 µM; in assay [7], above 100 µM; in assay [8], 87.4 µM.

Consider `Cc1cc(N(CCC#N)CCC#N)ccc1/C=C(\NC(=O)/C=C/c1ccccc1)C(=O)Nc1ccccc1Cl`, for which the total growth inhibition concentration (TGI) in [2], in assay [3], in assay [5], in [7], in assay [8] and in assay [9] was above 100 µM each time.

With `CCN(CC)CCOC(COc1cc(C)cc(C)c1)COc1cc(C)cc(C)c1`, the GI50 in assay [10] was 2.34 µM; in assay [2], 1.59 µM; in [3], 3.7 µM; in assay [4], 1.64 µM; in [5], 2.91 µM; in [6], 2.17 µM. Further, the GI50 is 7.16 µM in [7] and 1.85 µM in assay [8]. In addition, the concentration for total growth inhibition (TGI) in assay [10] worked out at 6.83 µM; in assay [2], 4.63 µM; in assay [3], 16 µM; in assay [4] it was 3.63 µM; in assay [5] it was 11.8 µM; in [6] it was 5.33 µM. In addition, the TGI in assay [7] came to 23.9 µM; in [8] it was 6.18 µM.

For `COc1cc2c(oc(=O)c3c4occc4cc(OC)c23)c2cccc(O)c12`, the TGI in assay [2], in [3], in [5], in [7], in assay [8] and in assay [9] was above 100 µM in each case.

`O=C(N/C(=C\c1ccc([N+](=O)[O-])cc1)c1nc2ccccc2s1)c1ccccc1`: the TGI was 69 µM in assay [2], 95.8 µM in [3], above 100 µM in assay [8] and 44.1 µM in assay [9].

Regarding `CCOc1ccc(C2=NN(CC)C(=O)C(C3C(=O)N(c4ccccc4)N=C3C)C2)cc1` (stereo not given), the total growth inhibition concentration (TGI) in [2], in assay [3], in assay [5], in [7], in [8] and in [9] was above 100 µM each time.

Regarding `CC1NOC(=O)C1N=Nc1cccc(Cl)c1` (stereo not given), the TGI in assay [1] is 71.5 µM; in [2], 23.4 µM; in assay [3], above 100 µM; in [5], above 100 µM; in assay [7], above 100 µM; in assay [8], above 100 µM.

For `CCc1ccc2c(c1)C(=O)c1c-2n(CCCN)c(=O)c2cc(OC)c(OC)cc12`, the GI50 in [2] is 1.72 µM; in assay [4] it was 1.97 µM; in [5], 1.92 µM; in [6], 1.58 µM; in assay [7] it was 21 µM; in [8] it was 1.82 µM. Also, the GI50 in [9] is 1.41 µM. Moreover, the TGI in [2] was 3.33 µM; in assay [4], 3.55 µM; in [5], 3.44 µM; in assay [6] it was 3.43 µM; in assay [7] it was 42.5 µM; in assay [8], 3.24 µM. The TGI in assay [9] came to 3.02 µM.

`COC(=O)C1=NC(=S)NC(c2ccccc2)C1c1nc2ccccc2o1` (stereo not given): the TGI in assay [1], in assay [2], in [3], in assay [5], in assay [7] and in [8] was above 50 µM throughout. The compound also registered a TGI in [9] above 50 µM.

Take `CCOc1ccc(NC(=O)CC2SC(=Nc3ccc(C)cc3)NC2=O)cc1` (stereo not given): the TGI in assay [1], in assay [2], in assay [5] and in assay [8] was above 100 µM each time.

In the case of `COC(=O)Cc1cc(=O)n2c3ccccc3n(C)c2c1C#N`, the TGI in assay [1], in assay [2], in assay [3], in [5], in [7] and in assay [8] was above 100 µM each time. The compound further returned a TGI in assay [9] above 100 µM.

Regarding `C=CCNC(=S)NNC(=O)c1c(C)nc2sccn12`, the total growth inhibition concentration (TGI) in [1], in [2], in assay [3], in assay [5], in [7] and in [8] was above 100 µM in each case.

As to `COc1cc2c(c(OC)c1OC)-c1cc(I)c(O)cc1[C@@H](NC(C)=O)CC2`, the GI50 is 0.039 µM in assay [2]; 3.58 µM in assay [3]; 0.419 µM in [5]; 0.0336 µM in assay [6]; 0.299 µM in assay [7]; 0.237 µM in assay [8]. The GI50 in [9] is 0.035 µM. Further, the total growth inhibition concentration (TGI) was above 100 µM in assay [2]; above 100 µM in assay [3]; above 100 µM in assay [5]; above 100 µM in assay [6]; 99.2 µM in assay [7]; above 100 µM in assay [8]. The compound also displayed a total growth inhibition concentration (TGI) in assay [9] of 2.53 µM.

As to `COC(=O)CC1(O)C(=O)OCc2c1cc1n(c2=O)Cc2c-1nc1ccccc1c2OC` (stereo not given), the TGI was below 0.0136 µM in assay [1]; above 100 µM in [2]; 4.62 µM in assay [3]; above 100 µM in assay [5]; 0.688 µM in assay [7]; above 100 µM in [8]. In assay [9], this compound registered a TGI of 23.2 µM.

As to `CC(=O)CCC1(c2ccccc2)OC(=O)C(C#N)=C1c1ccccc1` (stereo not given), the TGI in [2], in assay [5], in assay [8] and in [9] was above 100 µM throughout.

As to `CCCN1C(=O)/C(=C/c2ccc(SC(F)(F)F)cc2)SC1=Nc1ccc(OC)cc1`, the GI50 in assay [1] is 37.7 µM; in [2], 38.6 µM; in assay [3], 2.63 µM; in assay [4] it was 20 µM; in assay [5] it was 16.7 µM; in assay [6], 15.6 µM. For the same compound, the GI50 in assay [7] was 14.8 µM; in assay [8], 7.84 µM; in [9], 11.8 µM. For the same compound, the TGI in assay [1] is above 50 µM; in assay [2] it was above 50 µM; in [3], 12.5 µM; in assay [4], above 50 µM; in [5] it was 48.3 µM; in assay [6], above 50 µM. Besides, the TGI in [7] was above 50 µM; in assay [8] it was 24 µM; in assay [9] it was above 50 µM.

Turning to `COC(=O)C(=O)C(C(=O)C(=O)Nc1ccc([N+](=O)[O-])cc1)c1nc2ccccc2[nH]c1=O` (stereo not given), the concentration for total growth inhibition (TGI) in assay [2], in assay [3], in assay [7] and in [9] was above 100 µM in each case.

For the compound `CCCC1C[C@H]2CCCCN2[C@H]2CCCN12` (stereo not given in full), the TGI in [1] is above 64 µM; in assay [2], above 58.4 µM; in [3], above 100 µM; in [5], above 100 µM; in assay [7] it was above 100 µM; in [8], above 100 µM. Further, the TGI in [9] was above 63.9 µM.

`Cc1ccc(NCCNCC(C)(C)O)c2c(=O)c3ccc(Cl)cc3sc12`: the GI50 in [2] is 1.5 µM; in [4] it was 1.74 µM; in assay [5], 1.38 µM; in assay [6], 1.44 µM; in [8], 1.47 µM. Besides, the TGI in [2] turned out to be 2.96 µM; in [4], 3.27 µM; in assay [5], 2.87 µM; in [6], 2.97 µM; in assay [8], 2.95 µM.

For `CC(C)c1ccc(O)c(Cc2cc(C(C)C)cc(Cc3cc(C(C)C)ccc3O)c2O)c1`, the TGI was determined as 4.45 µM in assay [1]; 3.09 µM in assay [2]; 2.91 µM in [3]; 8.95 µM in assay [5]; 2.93 µM in assay [7]; 3.13 µM in assay [8]. In assay [9], this compound showed a TGI of 4.75 µM.

In the case of `COc1ccc(/C=C/C(=N\NC(=O)c2ccccc2)c2sc(Nc3ccc([N+](=O)[O-])cc3)nc2C)cc1OC`, the TGI is above 100 µM in [1]; above 100 µM in [2]; 32.8 µM in [3]; 91 µM in assay [5]; 44.7 µM in assay [7]; above 100 µM in assay [8].

In the case of `CCOc1ccc2nc(NC(=O)C(=O)C3C(=O)C(CC4C(=O)c5ccccc5C4=O)C(=O)CC3(C)C)sc2c1` (stereo not given), the TGI in [2], in assay [3], in [4], in assay [5], in assay [6] and in assay [7] was above 100 µM in each case. Moreover, the TGI in assay [8] is above 100 µM.
